# Assay results published in ChEMBL document CHEMBL1141201, “Phosphinate, sulfonate, and sulfonamidate dipeptides as potential inhibitors of Escherichia coli aminopeptidase N” (Bioorg Med Chem Lett, 2005).
# Molecular target: T1, Aminopeptidase N (Escherichia coli K-12, UniProt P04825)
# T1 sequence (P04825 whole entry): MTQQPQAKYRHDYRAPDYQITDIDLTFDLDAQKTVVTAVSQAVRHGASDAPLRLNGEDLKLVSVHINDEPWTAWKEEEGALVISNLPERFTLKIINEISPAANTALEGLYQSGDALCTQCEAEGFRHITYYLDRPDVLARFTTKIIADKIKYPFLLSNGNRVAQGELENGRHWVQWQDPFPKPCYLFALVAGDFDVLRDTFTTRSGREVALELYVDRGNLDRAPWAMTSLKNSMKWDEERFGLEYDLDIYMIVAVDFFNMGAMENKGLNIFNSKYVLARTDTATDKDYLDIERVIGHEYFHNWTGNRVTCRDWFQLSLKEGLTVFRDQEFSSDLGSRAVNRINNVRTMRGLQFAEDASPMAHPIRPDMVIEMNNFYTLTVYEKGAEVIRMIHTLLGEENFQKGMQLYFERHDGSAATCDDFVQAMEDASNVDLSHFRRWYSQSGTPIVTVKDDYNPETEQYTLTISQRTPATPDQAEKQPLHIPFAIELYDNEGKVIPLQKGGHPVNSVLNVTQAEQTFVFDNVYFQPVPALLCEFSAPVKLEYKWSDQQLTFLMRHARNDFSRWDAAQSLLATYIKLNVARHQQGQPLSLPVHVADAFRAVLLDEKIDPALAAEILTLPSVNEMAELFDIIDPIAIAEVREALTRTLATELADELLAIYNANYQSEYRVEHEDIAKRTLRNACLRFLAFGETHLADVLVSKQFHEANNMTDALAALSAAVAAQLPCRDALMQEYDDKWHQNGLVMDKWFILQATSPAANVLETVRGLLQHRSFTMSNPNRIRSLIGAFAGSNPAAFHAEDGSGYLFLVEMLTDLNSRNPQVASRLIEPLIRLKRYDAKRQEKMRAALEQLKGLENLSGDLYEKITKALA
# Assay: Inhibitory activity against aminopeptidase N (PepN) from Escherichia coli
row,SMILES,Ki
1,CC(NS(=O)(=O)C(C)N)C(=O)O (stereo not given),> 300 µM
2,CCCCCCCCC(CP(=O)(O)C(C)N)C(=O)O (stereo not given),1.1 µM
3,CC(OS(=O)(=O)C(C)N)C(=O)O (stereo not given),> 300 µM
4,C/C(=C\P(=O)(O)C(C)N)C(=O)O (stereo not given),1 µM
5,CC(CP(=O)(O)C(C)N)C(=O)O (stereo not given),10 µM
